From article PMC6010085, “Inhibition of protein tyrosine phosphatase (PTP1B) and α-glucosidase by geranylated flavonoids from Paulownia tomentosa” (Journal of Enzyme Inhibition and Medicinal Chemistry, 2017) come the findings set out here.

The target of assay [1] is α-glucosidase (EC 3.2.1.20. from Baker's Yeast) (Saccharomyces cerevisiae, UniProt P53341). As to the kind of experiment: α-Glucosidase enzymatic assay (pNPG hydrolysis) and kinetic analysis. It counts as biochemical. To be noted: for α-Glucosidase type of inhibition: Lineweaver–Burk and Dixon plots; for Vmax / Kik/Kiv: α-glucosidase, pNPG; for Kik/Kiv: Yang's method. Here is the method: The α-glucosidase inhibitory activity was measured using reported experimental method with slight modifications. Phosphate buffer [50 mM potassium phosphate (pH 6.8)] was used for the whole assay. p-nitrophenyl-α-D-glucopyranoside (pNPG) was used as substrate, whose concentration 1.2 mM was prepared in phosphate buffer. Stock solution of α-glucosidase (EC 3.2.1.20. from Baker’s Yeast) containing 0.45 units of enzyme was also prepared in phosphate buffer. DMSO was used as a solvent for dissolving the test compounds, which were then diluted to their respective concentrations. Enzymatic assay was performed by mixing 40 μl of substrate (final concentration 0.15 mM) with 10 μl of inhibitors/vehicle, 130 μl phosphate buffer and 20 μl of enzyme in 96 well plate. As a result of the catalytic reaction, p-nitrophenol was produced as a reaction product which was subsequently measured using spectra max M3 multi-mode microplate reader (Molecular Devices) at 37 °C, at 405 nm for 15 min. […] The experiments were performed in triplicate.
Sequence of α-glucosidase (EC 3.2.1.20. from Baker's Yeast) (P53341 whole entry): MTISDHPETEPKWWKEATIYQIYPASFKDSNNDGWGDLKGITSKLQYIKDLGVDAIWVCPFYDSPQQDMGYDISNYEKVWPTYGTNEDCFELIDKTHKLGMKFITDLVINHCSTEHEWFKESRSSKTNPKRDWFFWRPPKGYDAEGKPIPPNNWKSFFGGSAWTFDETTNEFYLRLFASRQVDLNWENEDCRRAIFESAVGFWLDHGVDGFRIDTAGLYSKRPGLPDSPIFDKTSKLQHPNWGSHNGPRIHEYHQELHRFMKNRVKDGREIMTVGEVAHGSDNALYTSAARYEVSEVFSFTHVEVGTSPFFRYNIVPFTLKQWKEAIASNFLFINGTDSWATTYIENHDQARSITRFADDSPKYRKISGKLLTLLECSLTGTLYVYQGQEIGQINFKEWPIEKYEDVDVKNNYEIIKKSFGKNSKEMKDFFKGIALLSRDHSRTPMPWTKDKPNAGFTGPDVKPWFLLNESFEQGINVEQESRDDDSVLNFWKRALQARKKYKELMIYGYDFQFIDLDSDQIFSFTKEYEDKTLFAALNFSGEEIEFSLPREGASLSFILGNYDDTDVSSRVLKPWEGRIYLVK
(§1) Lineweaver–Burk plots were used for the analysis of enzyme’s inhibitory kinetics, caused by the tested bioactive compounds, and its comparison was performed with the data collected in the absence of inhibitors. Steady-state rates were determined at different inhibitor concentrations and at changing concentrations of substrate, then enzyme inhibition mechanism and related kinetic parameters were determined. Where applicable, KI and KIS, the two inhibition constants, when inhibitor binds with either free enzyme or the complex of enzyme–substrate, were derived from secondary plots of the slopes of the straight lines and vertical intercept (1/V^appmax), versus inhibitors concentrations. Equations (1)–(3) are the representatives equations for derivation of KI and KIS, respectively.
(§2) To determine enzyme inhibition parameters, an experiment was performed having substrate concentrations range (pNPP; 0.4–1.6 mM, pNPG; 0.075–0.3 mM), and different concentrations of tested compound, as indicated. To find out each curve parameter, a nonlinear regression program was used for data analysis using sigma Plot. Similarly Km and Vmax were derived from Lineweaver–Burk plots. Kik and Kiv rate constants were calculated according to Equations (4) and (5) proposed by Yang’s method. While Excel was used for linear regression analysis. (4) Km=Km,0×(1+[I]/Kik) (5) Vm=[…]

Assay [2] concerns the target T1, recombinant human protein tyrosine phosphate 1B (PTP1B, EC 3. 1. 3. 48) (Homo sapiens, UniProt P18031).
T1 sequence (P18031 1-435): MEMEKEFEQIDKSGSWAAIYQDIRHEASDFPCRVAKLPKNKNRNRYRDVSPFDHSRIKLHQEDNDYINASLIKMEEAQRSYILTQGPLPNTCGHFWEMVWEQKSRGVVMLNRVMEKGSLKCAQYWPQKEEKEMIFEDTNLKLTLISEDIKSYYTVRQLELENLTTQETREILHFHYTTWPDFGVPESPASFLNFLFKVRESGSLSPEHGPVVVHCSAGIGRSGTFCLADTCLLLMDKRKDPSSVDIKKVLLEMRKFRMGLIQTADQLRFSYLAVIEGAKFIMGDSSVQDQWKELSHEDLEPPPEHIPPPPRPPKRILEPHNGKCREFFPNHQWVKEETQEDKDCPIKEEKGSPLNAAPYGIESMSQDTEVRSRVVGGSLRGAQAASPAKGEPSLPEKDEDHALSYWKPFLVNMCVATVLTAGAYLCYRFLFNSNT
As to the kind of experiment: biochemical. The assay is classed as biochemical. To be noted: for PTP1B type of inhibition: Lineweaver–Burk / secondary plots; for Vmax / Kik/Kiv: pNPP; for Kik/Kiv: Yang's method. Set-up: Vmax: unit not given here. Here is the method:
The PTP1B inhibitory assay was carried out using a slight modification to literature reported method. p-nitrophenyl phosphate (pNPP) was used as a substrate for the measurement of enzyme activity. Buffer solution consisted of 25 mM Tris–HCl (pH 7.5), 2 mM β-mercaptoethanol, 1 mM (ethylenediaminetetraacetic acid) EDTA, and 1 mM dithiothreitol (DTT). The assay was performed by adding 10 μL test compound solution to 20 μL of enzyme (1 μg/ml), and then mixing with 40 μL of 4 mM pNPP in 130 μL of the given buffer using 96 well plate at 37 °C for 10 min. […] Lineweaver–Burk and Dixon plots methods were used to determine kinetic parameters. Sigma Plot (SPCC Inc., Chicago, IL) was used to calculate these parameters.
as §1, §2
First of all, the individual isolated constituents (1–8) from P. tomentosa fruits were tested in an in vitro PTP1B inhibition assay, using recombinant human protein tyrosine […] 1B (EC 3. 1. 3. 48)^1.

The mark [3] stands for this setting: PTP1B, secondary plots, read-out: KI (inhibitor binds with free enzyme).
Where [4] appears, read: from Dixon plots, read-out: PTP1B Ki (inhibition constant).
[5] abbreviates: pNPP substrate, triplicate, read-out: PTP1B IC50.

Entries after “also recorded” stand apart in the source; their conditions may differ. Where two headings read alike, the source gives them in different places.

`CC(C)=CCC/C(C)=C/Cc1c(O)cc2c(c1O)C(=O)C[C@@H](c1ccc(O)cc1)O2` [Compound 1, mimulone]: the “α-Glucosidase type of inhibition” value in assay [1] is reported as “Noncompetitive”. Also, the Vmax is reported as 0.117 in assay [1] ([I] 12.5 µM); 0.082 in assay [1] ([I] 25 µM); 0.054 in assay [1] ([I] 50 µM); 0.012 in assay [2] (PTP1B, [I] 0.78 µM); 0.009 in assay [2] (PTP1B, [I] 1.56 µM); 0.007 in assay [2] (PTP1B, [I] 3.13 µM). The Kik/Kiv in assay [1] ([I] 12.5 µM) was 12.42; in assay [1] ([I] 25 µM) it was 19.34; in assay [1] ([I] 50 µM), 27.48; in assay [2] (PTP1B, [I] 0.78 µM), 2.660; in assay [2] (PTP1B, [I] 1.56 µM) it was 3.335; in assay [2] (PTP1B, [I] 3.13 µM), 3.694. In assay [2], the concentration for half-maximal inhibition (IC50) came to 1.9 ± 0.1 µM. Also, the Ki in assay [2] (KI (inhibitor binds with free enzyme), PTP1B, secondary plots, text without unit) stood at 0.4 µM; in assay [2] (PTP1B Ki (inhibition constant), from Dixon plots), 0.8 ± 0.1 µM. For the same compound, the “PTP1B type of inhibition” value in assay [2] is “Mixed TypeⅠ; also recorded: mixed type Ι; also recorded: Mixed Type I”. In addition, the “KIS (inhibitor binds with enzyme-substrate complex)” value in assay [2] (PTP1B, secondary plots) was 2.2 ± 0.1 µM; in assay [2] (PTP1B, secondary plots, text without unit), 2.2. Besides, the “reversibility of PTP1B inhibition” value in assay [2] (initial velocity versus enzyme concentration at different inhibitor concentrations) is reported as “reversible inhibitor”.

For `COc1cc([C@@H]2CC(=O)c3c(cc(O)c(C/C=C(\C)CCC=C(C)C)c3O)O2)ccc1O` [Compound 2, 3′-O-methyldiplacone], in assay [1], the “α-Glucosidase type of inhibition” value is recorded as “Noncompetitive”. In addition, the “PTP1B type of inhibition” value in assay [2] was “Mixed TypeⅠ; also recorded: Mixed Type I”. Also, in assay [2] (PTP1B, secondary plots), the “KIS (inhibitor binds with enzyme-substrate complex)” value came to 3.7 ± 0.2 µM. Also, the figures for the inhibitory constant (Ki) in assay [2] (setting [3]) and in assay [2] (setting [4]) were 2.6 ± 0.1 µM and 3.2 ± 0.2 µM, respectively. Moreover, in assay [2] (setting [5]), the IC50 was 3.9 ± 0.3 µM.

Turning to `COc1ccc([C@@H]2CC(=O)c3c(cc(O)c(C/C=C(\C)CCC=C(C)C)c3O)O2)cc1O` [Compound 3, 4′-O-methyldiplacone], the “α-Glucosidase type of inhibition” value in assay [1] is given as “Noncompetitive”. Moreover, the “PTP1B type of inhibition” value in assay [2] is “Mixed TypeⅠ; also recorded: Mixed Type I”. Also, the “KIS (inhibitor binds with enzyme-substrate complex)” value in assay [2] (PTP1B, secondary plots) worked out at 10.1 ± 0.4 µM. Besides, the inhibition constant (Ki) in assay [2] (setting [3]) was 5.7 ± 0.3 µM; in assay [2] (setting [4]), 8.1 ± 0.6 µM. Further, in assay [2] (setting [5]), the IC50 is 7.8 ± 0.6 µM.

With `COc1c(O)cc(C2CC(=O)c3c(cc(O)c(C/C=C(\C)CCC=C(C)C)c3O)O2)cc1O` (stereo not drawn) [Compound 4, 6-geranyl-3′,5,5′,7-tetrahydroxy-4′-methoxyflavanone], the “α-Glucosidase type of inhibition” value in assay [1] is “Noncompetitive”. Moreover, the “PTP1B type of inhibition” value in assay [2] was “Mixed TypeⅠ; also recorded: Mixed Type I”. In addition, the “KIS (inhibitor binds with enzyme-substrate complex)” value in assay [2] (PTP1B, secondary plots) is 11.2 ± 0.4 µM. Further, the Ki in assay [2] (setting [3]) was found to be 5.5 ± 0.3 µM; in assay [2] (setting [4]), 6.1 ± 0.5 µM. Also, the half-inhibitory concentration (IC50) in assay [2] (setting [5]) came to 5.9 ± 0.4 µM.

Regarding `COc1cc([C@@H]2CC(=O)c3c(cc(O)c(C/C=C(\C)CCC=C(C)C)c3O)O2)cc(OC)c1O` [Compound 5, 3′-O-Methyl-5′-O-methyldiplacone], the “α-Glucosidase type of inhibition” value in assay [1] was “Noncompetitive”. Moreover, the “PTP1B type of inhibition” value in assay [2] is on record as “Mixed TypeⅠ; also recorded: Mixed Type I”. Further, in assay [2] (PTP1B, secondary plots), the “KIS (inhibitor binds with enzyme-substrate complex)” value came to 4.6 ± 0.2 µM. In addition, the results for the inhibitory constant (Ki) in assay [2] (setting [3]) and in assay [2] (setting [4]) were 2.8 ± 0.2 µM and 3.5 ± 0.3 µM, respectively. Also, the IC50 in assay [2] (setting [5]) came to 3.8 ± 0.3 µM.

Take `COc1cc([C@H]2Oc3cc(O)c(C/C=C(\C)CCC=C(C)C)c(O)c3C(=O)[C@@H]2O)ccc1O` [Compound 6, 3′-O-methyldiplacol]: the “α-Glucosidase type of inhibition” value in assay [1] is given as “Noncompetitive”. In addition, the “PTP1B type of inhibition” value in assay [2] is “Mixed TypeⅠ; also recorded: mixed type Ι; also recorded: Mixed Type I”. The “KIS (inhibitor binds with enzyme-substrate complex)” value in assay [2] (PTP1B, secondary plots) came to 5.2 ± 0.2 µM. Besides, the Ki in assay [2] (setting [3]) turned out to be 3.5 ± 0.2 µM; in assay [2] (setting [4]), 3.8 ± 0.3 µM. Further, in assay [2] (setting [5]), the half-inhibitory concentration (IC50) was determined as 4.9 ± 0.5 µM.

As for `COc1ccc([C@H]2Oc3cc(O)c(C/C=C(\C)CCC=C(C)C)c(O)c3C(=O)[C@@H]2O)cc1O` [Compound 7, 4′-O-methyldiplacol], in assay [1], the “α-Glucosidase type of inhibition” value is listed as “Noncompetitive”. For the same compound, the “PTP1B type of inhibition” value in assay [2] was “Mixed TypeⅠ; also recorded: Mixed Type I”. The “KIS (inhibitor binds with enzyme-substrate complex)” value in assay [2] (PTP1B, secondary plots) amounted to 13.7 ± 0.6 µM. Further, the figures for the inhibition constant Ki in assay [2] (setting [3]) and in assay [2] (setting [4]) were 6.9 ± 0.4 µM and 7.9 ± 0.4 µM, respectively. Further, the IC50 in assay [2] (setting [5]) is 8.2 ± 0.6 µM.

As for `COc1c(O)cc([C@H]2Oc3cc(O)c(C/C=C(\C)CCC=C(C)C)c(O)c3C(=O)[C@@H]2O)cc1O` [Compound 8], the “α-Glucosidase type of inhibition” value in assay [1] is given as “Noncompetitive”. Besides, the “PTP1B type of inhibition” value in assay [2] is recorded as “Mixed TypeⅠ; also recorded: Mixed Type I”. Besides, the “KIS (inhibitor binds with enzyme-substrate complex)” value in assay [2] (PTP1B, secondary plots) was found to be 10.3 ± 0.5 µM. For the same compound, the inhibitory constant (Ki) in assay [2] (setting [3]) is 5.9 ± 0.3 µM; in assay [2] (setting [4]) it was 6.2 ± 0.4 µM. In addition, the IC50 in assay [2] (setting [5]) was 6.6 ± 0.5 µM.

`[Na+].[Na+].[Na+].[O]=[V]([O-])([O-])[O-]` [NaVO4, reference compound] showed an IC50 in assay [1] (pNPG substrate, triplicate) of over 200 µM.

What is called IC50 is the concentration needed to halve the response being measured. The Ki is a dissociation constant, usually derived from enzyme kinetics or from competition with a known ligand.
